Where a name gives a salt, the structure may show the parent alone.
Tests used:
NHE3 = molecular target: T1, NHE3 (Homo sapiens, UniProt P48764); assay: Sustained inhibition of apical acid secretion in human organoid monolayer cell cultures (ileum); assay type: cell-based; conditions: 1 μM apical, dosed day 6, apical media pH day 8
T1 construct: due to the increase in NHE3 expression after differentiation; endogenous in cells; host or cells: human ileum / duodenum organoid-derived monolayers
T1 sequence (P48764 26-834): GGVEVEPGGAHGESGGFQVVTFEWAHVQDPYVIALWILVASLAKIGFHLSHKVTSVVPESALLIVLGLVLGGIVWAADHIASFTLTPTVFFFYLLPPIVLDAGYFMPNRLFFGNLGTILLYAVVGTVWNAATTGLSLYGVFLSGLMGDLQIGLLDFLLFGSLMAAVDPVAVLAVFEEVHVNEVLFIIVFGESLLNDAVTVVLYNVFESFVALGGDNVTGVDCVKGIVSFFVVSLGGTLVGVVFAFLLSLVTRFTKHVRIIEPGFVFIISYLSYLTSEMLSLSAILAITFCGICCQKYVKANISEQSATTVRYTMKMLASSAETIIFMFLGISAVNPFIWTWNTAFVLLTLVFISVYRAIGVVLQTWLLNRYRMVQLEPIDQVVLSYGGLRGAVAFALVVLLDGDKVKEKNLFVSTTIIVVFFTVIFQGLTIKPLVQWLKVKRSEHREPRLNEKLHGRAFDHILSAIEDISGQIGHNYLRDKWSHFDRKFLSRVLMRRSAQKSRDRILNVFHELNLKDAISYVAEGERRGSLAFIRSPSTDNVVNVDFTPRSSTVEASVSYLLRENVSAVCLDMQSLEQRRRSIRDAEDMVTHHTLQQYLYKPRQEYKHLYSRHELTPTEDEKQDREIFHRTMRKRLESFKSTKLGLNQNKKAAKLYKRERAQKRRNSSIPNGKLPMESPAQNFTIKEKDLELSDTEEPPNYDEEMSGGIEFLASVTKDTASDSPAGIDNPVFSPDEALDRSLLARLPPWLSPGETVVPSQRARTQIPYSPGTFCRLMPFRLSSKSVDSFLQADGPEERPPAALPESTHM
Method: Basal media (BM) consisted of advanced DMEM/F12 containing 10 mM HEPES (Invitrogen, 15630-080), 1:100 Glutamax (Invitrogen, 35050-061), and 1:100 penicillin/streptomycin (Invitrogen, 15140-122). […] Growth factors used included 50 ng per mL mouse EGF (Peprotech, 315-09), 100 ng per mL mouse noggin (Peprotech, 250-38), 500 ng per mL human R-spondin 1 (R&D, 4645-RS), 100 ng per mL mouse Wnt-3a (R&D, 1324-WN), 20 μM Y-27632 (Tocris, 1254), 10 mM nicotinamide (Sigma, N0636), 500 nM A83-01 (Tocris, 2939), 10 μM SB202190 (Tocris, 1264). Transwells were 0.4 μm pore polyester membrane 24-well Transwell inserts (Corning). Cultures were incubated at 37° C. in 5% CO2.
Human ileum organoids were cultured in WENRNAS (Wnt, EGF, noggin. R-spondin1. Nicotinamide. A83-01, SB202190) and typically grown for 7-12 days before being used to plate monolayer cultures. On day 0, organoid cultures embedded in Matrigel were treated with TrypLE Express to break organoids into small pieces and/or single cells. […]
Each human ileum monolayer culture well was washed twice with fresh SBM on the apical side on day 6 before compound dosing. […] On day 8, apical media pH was measured by pH electrode, to determine the ability of example compounds to produce sustained inhibition of NHE3 activity in a human monolayer culture system by preventing proton secretion into the apical compartment.

[1] = test system: human duodenum monolayer culture; assay: Increased trans-epithelial resistance (TEER) in human organoid monolayer cell cultures; assay type: cell-based; conditions: 1 μM apical, baseline corrected
Method: Transwells were 0.4 μm pore polyester membrane 24-well Transwell inserts (Corning). Cultures were incubated at 37° C. in 5% CO2.
Human duodenum organoids were cultured in WENRNAS (Wnt, EGF, noggin, R-spondin1. Nicotinamide, A83-01, SB202190) and typically grown for 7-12 days before being used to plate monolayer cultures. On day 0, organoid cultures embedded in Matrigel were treated with TrypLE Express to break organoids into small pieces and/or single cells. The cells were resuspended to 0.5×10^6 cells/mL in SBM containing WENRAY (Wnt. EGF, noggin, R-spondin1, A83-01, Y-27632). Following this step, 200 μL of cell suspension was plated into the apical side of a 24-well Transwell (100,000 cells/well) and 600 μL of SBM with WENRAY was added to the basolateral side. Duodenum cells were differentiated with ENA (EGF, noggin, A83-01) on day 3. […]
Each human duodenum monolayer culture well was washed twice with fresh SBM on the apical side on day 6 or day 7 before dosing. […] Transepithelial electrical resistance (TEER) was used as a quantitative technique to measure of tight junction permeability. TEER values were recorded (MERS00002. Millipore) before dosing and 30 mins and 1 hr after dosing for all wells. […] Baseline corrected TEER for each example compound was compared to the average of the DMSO wells and expressed as a percent TEER of vehicle control.

% inhibition (ileum) (NHE3): C (>70%)
Structure (SMILES): CN1Cc2c(Cl)cc(Cl)cc2[C@H](c2cccc(S(=O)(=O)NCCOCCOCCNC(=O)NCCCCNC(=O)NCCOCCOCCNS(=O)(=O)c3cccc([C@@H]4CN(C)Cc5c(Cl)cc(Cl)cc54)c3)c2)C1 (single isomer, unassigned) [Example 202, (S or R)—N,N′-(10,17-dioxo-3,6,21,24-tetraoxa-9,11,16,18-tetraazahexacosane-1,26-diyl)bis(3-((S)-6,8-dichloro-2-methyl-1,2,3,4-tetrahydroisoquinolin-4-yl)benzenesulfonamide) bis-hydrochloride salt]
TEER at 30 minutes (% of Vehicle) ([1]; 30 mins after dosing): B (100-130%) | TEER at 60 minues (% of Vehicle) ([1]; 1 hr after dosing): B (100-130%)

Reference: patent publication US20190374533A1, “COMPOUNDS AND METHODS FOR INHIBITING NHE-MEDIATED ANTIPORT IN THE TREATMENT OF DISORDERS ASSOCIATED WITH FLUID RETENTION OR SALT OVERLOAD AND GASTROINTESTINAL TRACT DISORDERS” (Ardelyx, Inc., priority 2008, published 2019)
